The results in this text go back to BindingDB's records for doi:10.1021/jm020424z (Merck Research Laboratories, 2002).

Structures are written as SMILES. pKi: −log10 of the molar value.

This experiment concerns the target Carboxypeptidase A1 (Bos taurus) (UniProt P00730). In words: The compound was evaluated for the inhibition of Carboxypeptidase A.

Sequence of Carboxypeptidase A1 (Bos taurus) (P00730 whole entry, looked up): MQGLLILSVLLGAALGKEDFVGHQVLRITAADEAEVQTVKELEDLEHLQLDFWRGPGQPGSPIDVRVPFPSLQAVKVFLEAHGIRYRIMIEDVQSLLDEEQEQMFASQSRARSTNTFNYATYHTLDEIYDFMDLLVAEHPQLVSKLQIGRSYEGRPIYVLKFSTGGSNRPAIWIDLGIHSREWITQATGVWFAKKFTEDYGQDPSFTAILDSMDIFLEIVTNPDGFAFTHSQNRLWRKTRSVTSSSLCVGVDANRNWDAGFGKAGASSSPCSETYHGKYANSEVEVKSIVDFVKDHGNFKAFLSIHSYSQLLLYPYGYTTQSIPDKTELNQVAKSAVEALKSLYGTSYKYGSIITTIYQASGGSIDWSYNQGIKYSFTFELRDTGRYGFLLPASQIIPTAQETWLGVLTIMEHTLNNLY

In the case of `O=C(O)CCC(Cc1ccccc1)C(=O)O` (configuration not stated) [2-Benzyl-pentanedioic acid], the pKi – broadly, −log10 of the Ki, conventionally taken in molar units – was 5.30.
`O=C(O)C[C@@H](Cc1ccccc1)C(=O)O` [2-benzylbutanedioic acid] had a pKi of 6.35.
